Like-named read-outs stand apart in the source and are kept apart here.
What was measured:
[1] = target: T1, human CYP21 (Homo sapiens, UniProt P08686); experiment: Whole cell biotransformation (21-hydroxylation) in E. coli C43(DE3); assay type: cell-based; set-up: lacking the hydrophobic anchor region, i.e. a truncation of 29 N-terminal amino acid residues; 6xHis (C); expressed in transfected cells; host or cells: E. coli C43(DE3) transformed with pET17b-based bi-/tricistronic vectors (p21h_...) and pGro12
T1 sequence (P08686 with tags, fused parts or gaps): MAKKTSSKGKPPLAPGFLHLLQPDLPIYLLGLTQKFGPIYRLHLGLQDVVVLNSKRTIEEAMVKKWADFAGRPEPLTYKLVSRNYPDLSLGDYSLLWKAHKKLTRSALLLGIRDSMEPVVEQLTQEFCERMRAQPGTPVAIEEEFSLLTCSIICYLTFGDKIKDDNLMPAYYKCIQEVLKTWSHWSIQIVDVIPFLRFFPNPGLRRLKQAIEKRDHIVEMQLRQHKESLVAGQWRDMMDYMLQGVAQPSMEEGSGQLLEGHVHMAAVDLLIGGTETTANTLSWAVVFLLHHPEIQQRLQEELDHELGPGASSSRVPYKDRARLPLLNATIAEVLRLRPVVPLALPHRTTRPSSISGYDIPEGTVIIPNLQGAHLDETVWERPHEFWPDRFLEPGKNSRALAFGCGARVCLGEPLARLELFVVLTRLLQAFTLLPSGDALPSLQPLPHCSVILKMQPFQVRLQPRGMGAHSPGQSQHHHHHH

[2] = target: T2, bovine CYP21 (Bos taurus, UniProt P00191); experiment: as above; assay type: cell-based
T2 construct: lacking the hydrophobic anchor region, i.e. a truncation of 29 N-terminal amino acid residues; 6xHis (C); expressed in transfected cells
T2 sequence (P00191 with tags, fused parts or gaps): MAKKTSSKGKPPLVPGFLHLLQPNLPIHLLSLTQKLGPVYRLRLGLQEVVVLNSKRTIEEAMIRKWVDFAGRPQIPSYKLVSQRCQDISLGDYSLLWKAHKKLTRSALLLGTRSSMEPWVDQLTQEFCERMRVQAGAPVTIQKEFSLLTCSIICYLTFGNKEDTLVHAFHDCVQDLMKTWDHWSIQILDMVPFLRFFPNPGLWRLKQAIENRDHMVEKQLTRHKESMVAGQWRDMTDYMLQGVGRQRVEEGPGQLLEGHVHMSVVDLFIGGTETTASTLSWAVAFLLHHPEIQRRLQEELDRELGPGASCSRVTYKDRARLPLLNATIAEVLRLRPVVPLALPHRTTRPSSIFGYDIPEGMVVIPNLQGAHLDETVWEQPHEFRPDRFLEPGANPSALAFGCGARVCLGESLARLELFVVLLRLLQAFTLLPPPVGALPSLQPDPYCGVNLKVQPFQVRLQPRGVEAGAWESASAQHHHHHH

[3] = target: T2, bovine CYP21; experiment: In vitro substrate conversion with purified enzymes (reconstituted cytochrome P450 system); assay type: biochemical; settings: defined buffer, NADPH regeneration system, electron transfer proteins of Table 2
Method: (§1) Both enzymes were expressed in the E. coli strain C43(DE3) by coexpression of the E. coli chaperones GroEL/GroES encoded in the vector pGro12. These chaperones ensure a correct protein folding which is important for an incorporation of the heme prosthetic group. In FIG. 3 an SDS-PAGE and a CO difference spectrum of purified bovine CYP21 are shown. […] To determine the binding of medrane to both isozymes the binding constants (KD-values) were determined.
(§2) For an efficient substrate conversion, both isoforms require an electron transfer system which consists of two parts, the cytochrome P450 enzyme itself and one or two electron transfer proteins which are essential for a hydroxylation reaction. Without these transfer proteins, no reaction will take place.
(§3) For in vitro studies and a verification of a substrate conversion, all redox partners were purified.

[4] = target: T1, human CYP21; experiment: as above; assay type: biochemical; set-up: lacking the hydrophobic anchor region, i.e. a truncation of 29 N-terminal amino acid residues; 6xHis (C); made in house; host or cells: E. coli C43(DE3), co-expressing GroEL/GroES from pGro12; settings: defined buffer, NADPH regeneration system, electron transfer proteins of Table 2
Method: as §1, §2, §3

[5] = human CYP21 with redox partners, GroEL/GroES co-expressed
[6] = bovine CYP21 with redox partners, GroEL/GroES co-expressed

With `CC(=O)[C@H]1CC[C@H]2[C@@H]3CC[C@H]4CC(=O)CC[C@]4(C)[C@H]3CC[C@]12C` [5α-dihydroprogesterone] the “hydroxylation at position 21 (steroid conversion)” value (“hydroxylation” below) [1] was “able to hydroxylate” and the “hydroxylation” value [2] was “able to hydroxylate”.

In the case of `CC(=O)[C@@]1(O)CC[C@H]2[C@@H]3C[C@H](C)C4=CC(=O)C=C[C@]4(C)[C@H]3[C@@H](O)C[C@@]21C` [Deltamedrane, deltamedrane], the “hydroxylation” value [1, 5] is reported as “able to hydroxylate” and the “hydroxylation” value [2, 6] is reported as “able to hydroxylate”.

For `CC(=O)[C@@]1(O)CCC2C3C[C@H](C)C4=CC(=O)CC[C@]4(C)C3[C@@H](O)C[C@@]21C` (stereo partly drawn) [Medrane, medrane], the “hydroxylation” value [1, 5] was “able to hydroxylate”, the “in vitro conversion of medrane to premedrol” value [3] was “very efficiently” and the “hydroxylation” value [2, 6] was “able to hydroxylate”. For the same molecule, the “in vitro conversion of medrane to premedrol” value [4] was “very efficiently”.

In the case of `CC(=O)[C@H]1CC[C@H]2[C@@H]3CCC4=CC(=O)CC[C@]4(C)[C@H]3CC[C@]12C` [Progesterone, progesterone], the “hydroxylation” value [1, 5] is reported as “able to hydroxylate” and the “hydroxylation” value [2, 6] is reported as “able to hydroxylate”.

With medroxyprogesterone the “hydroxylation” value [1] was “able to hydroxylate” and the “hydroxylation” value [2] was “able to hydroxylate”.
